According to patent US20090137572A1, “2-substituted-4-heteroaryl-pyrimidines useful for the treatment of proliferative disorders” (priority 2004, published 2009):

Legend:
[1] = target: CDK9/cyclin T1 (Homo sapiens, UniProt P50750); assay: CDK 9 assay (CTD peptide substrate); type: biochemical; details: read-out: Kinase Inhibition pIC50 CDK9-cyclin T1 (converted)
Summary of the method: (§1)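 Test compounds were incubated with recombinant human kinase/cyclin complex and CTD peptide substrate for 45 min at 30° C (pH 7.2, 100 μM ATP spiked with 32PγATP, 15 mM MgCl2). Reactions were stopped on ice, avidin was added, and phosphorylated peptide was captured on P81 filters and counted by scintillation.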

[2] = target: CDK4-cyclin D1 (Homo sapiens, UniProt P11802); assay: Kinase assay (radioactive phosphate incorporation), CDK4-cyclin D1; type: biochemical; details: read-out: Kinase Inhibition pIC50 CDK4-cyclin D1 (converted)
Chain of CDK4-cyclin D1 (P11802 whole entry): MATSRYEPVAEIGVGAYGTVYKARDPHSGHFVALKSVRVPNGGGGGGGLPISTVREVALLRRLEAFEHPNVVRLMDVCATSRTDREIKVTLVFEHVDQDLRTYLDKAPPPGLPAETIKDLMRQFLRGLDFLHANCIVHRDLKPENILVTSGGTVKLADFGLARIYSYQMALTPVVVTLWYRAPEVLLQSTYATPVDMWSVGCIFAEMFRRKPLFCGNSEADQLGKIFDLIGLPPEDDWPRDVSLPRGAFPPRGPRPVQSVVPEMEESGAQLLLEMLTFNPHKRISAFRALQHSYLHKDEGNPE
Chain of CDK4-cyclin D1 (P24385 whole entry partner): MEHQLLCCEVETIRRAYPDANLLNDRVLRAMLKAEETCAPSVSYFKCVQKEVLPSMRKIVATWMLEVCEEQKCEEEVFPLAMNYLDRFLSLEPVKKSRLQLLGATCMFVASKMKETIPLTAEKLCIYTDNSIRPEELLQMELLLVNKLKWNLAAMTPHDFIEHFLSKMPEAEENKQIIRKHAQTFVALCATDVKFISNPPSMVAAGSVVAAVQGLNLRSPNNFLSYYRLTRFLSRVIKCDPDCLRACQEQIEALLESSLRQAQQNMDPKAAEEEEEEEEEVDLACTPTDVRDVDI
Summary of the method: (§2)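 Radiometric filter-binding format: recombinant kinase + substrate, pH 7.4 MOPS buffer with EGTA, DTT, vanadate; 100 μM ATP/[γ-32P]-ATP, 15 mM MgCl2; 30° C; stopped on ice, P81 or GF/C filtration, scintillation read.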

[3] = target: CDK2-cycline E (Homo sapiens, UniProt P24941); assay: Kinase assay (radioactive phosphate incorporation), CDK2-cyclin E; type: biochemical; details: read-out: Kinase Inhibition pIC50 CDK2-cycline E (converted)
Summary of the method: as §2

[4] = target: CDK1-cyclin B (Homo sapiens, UniProt P06493); assay: Kinase assay (radioactive phosphate incorporation), CDK1-cyclin B; type: biochemical; details: read-out: Kinase Inhibition pIC50 CDK1-cyclin B (converted)
Chain of CDK1-cyclin B (P06493 whole entry): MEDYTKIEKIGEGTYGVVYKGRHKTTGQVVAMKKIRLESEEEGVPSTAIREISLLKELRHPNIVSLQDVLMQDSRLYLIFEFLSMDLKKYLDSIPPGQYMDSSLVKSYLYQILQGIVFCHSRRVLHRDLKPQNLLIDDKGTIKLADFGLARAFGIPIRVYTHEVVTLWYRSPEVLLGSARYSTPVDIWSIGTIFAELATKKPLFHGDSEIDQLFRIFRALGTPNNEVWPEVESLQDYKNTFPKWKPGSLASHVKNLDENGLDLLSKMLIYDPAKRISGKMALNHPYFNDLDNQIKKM
Chain of CDK1-cyclin B (P14635 whole entry partner): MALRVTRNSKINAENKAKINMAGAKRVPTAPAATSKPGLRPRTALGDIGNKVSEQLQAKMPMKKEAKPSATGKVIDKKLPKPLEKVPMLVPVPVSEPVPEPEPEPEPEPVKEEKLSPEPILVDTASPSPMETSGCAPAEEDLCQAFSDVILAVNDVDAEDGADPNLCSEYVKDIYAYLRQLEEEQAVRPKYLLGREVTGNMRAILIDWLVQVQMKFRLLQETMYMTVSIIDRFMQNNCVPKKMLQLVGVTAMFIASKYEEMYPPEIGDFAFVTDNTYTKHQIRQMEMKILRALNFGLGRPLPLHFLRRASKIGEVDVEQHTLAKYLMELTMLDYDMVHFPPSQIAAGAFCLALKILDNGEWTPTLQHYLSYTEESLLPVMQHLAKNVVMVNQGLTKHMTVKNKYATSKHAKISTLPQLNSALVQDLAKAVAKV
Summary of the method: as §2

[5] = target: CDK2-cyclin A (Homo sapiens, UniProt P24941); assay: Kinase assay (radioactive phosphate incorporation), CDK2-cyclin A; type: biochemical; details: read-out: Kinase Inhibition pIC50 CDK2-cyclin A (converted)
Description: Kinase assays. The compounds of the invention above were investigated for their ability to inhibit the enzymatic activity of various protein kinases (Table 2). This was achieved by measurement of incorporation of radioactive phosphate from ATP into appropriate polypeptide substrates. Recombinant protein kinases and kinase complexes were produced or obtained commercially. Assays were performed using 96-well plates and appropriate assay buffers (typically 25 mM β-glycerophosphate, 20 mM MOPS, 5 mM EGTA, 1 mM DTT, 1 mM […], pH 7.4), into which were added 2-4 μg of active enzyme with appropriate substrates. The reactions were initiated by addition of Mg/ATP mix (15 mM MgCl2+100 μM ATP with 30-50 kBq per well of [γ-^32P]-ATP) and mixtures incubated as required at 30° C. Reactions were stopped on ice, followed by filtration through p81 filterplates or GF/C filterplates (Whatman Polyfiltronics, Kent, UK). After washing 3 times with 75 mM aq orthophosphoric acid, plates were dried, scintillant added and incorporated radioactivity measured in a scintillation counter (TopCount, Packard Instruments, Pangbourne, Berks, UK). Compounds for kinase assay were made up as 10 mM stocks in DMSO and diluted into 10% DMSO in assay buffer.

[6] = target: T1, Aurora A kinase (Homo sapiens, UniProt O14965); assay: Aurora-A (human) kinase assay (Kemptide substrate); type: biochemical; details: pIC50 is -log(IC50, M); 15 μM ATP; read-out: Kinase Inhibition pIC50 Aurora A kinase (converted)
T1 construct: purchased
T1 sequence (O14965 1-403): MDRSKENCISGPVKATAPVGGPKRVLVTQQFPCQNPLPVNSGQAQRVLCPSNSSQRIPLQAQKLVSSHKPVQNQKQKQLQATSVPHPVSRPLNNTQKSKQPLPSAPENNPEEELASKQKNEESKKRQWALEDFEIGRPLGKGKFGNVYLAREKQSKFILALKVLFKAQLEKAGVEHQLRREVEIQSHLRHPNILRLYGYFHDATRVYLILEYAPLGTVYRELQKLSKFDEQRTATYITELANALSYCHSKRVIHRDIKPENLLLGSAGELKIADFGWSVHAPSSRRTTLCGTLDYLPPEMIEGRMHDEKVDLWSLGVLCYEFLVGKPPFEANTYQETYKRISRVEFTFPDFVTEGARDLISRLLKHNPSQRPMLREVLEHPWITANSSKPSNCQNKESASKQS
Summary of the method: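 Radiometric filter-binding assay: commercial aurora-A kinase (5-10 ng) with 200 μM Kemptide in MOPS/EDTA pH 7.0, started with 10 mM Mg acetate and 15 μM ATP plus [γ-33P]-ATP. Incubated 40 min at room temperature, stopped with phosphoric acid, incorporated 33P counted by scintillation.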

[7] = target: CDK7/cyclin H (Homo sapiens, UniProt P50613); assay: CDK 7 assay (CTD peptide substrate); type: biochemical; details: read-out: Kinase Inhibition pIC50 CDK7-cyclin H (converted)
Chain of CDK7/cyclin H (P50613 whole entry): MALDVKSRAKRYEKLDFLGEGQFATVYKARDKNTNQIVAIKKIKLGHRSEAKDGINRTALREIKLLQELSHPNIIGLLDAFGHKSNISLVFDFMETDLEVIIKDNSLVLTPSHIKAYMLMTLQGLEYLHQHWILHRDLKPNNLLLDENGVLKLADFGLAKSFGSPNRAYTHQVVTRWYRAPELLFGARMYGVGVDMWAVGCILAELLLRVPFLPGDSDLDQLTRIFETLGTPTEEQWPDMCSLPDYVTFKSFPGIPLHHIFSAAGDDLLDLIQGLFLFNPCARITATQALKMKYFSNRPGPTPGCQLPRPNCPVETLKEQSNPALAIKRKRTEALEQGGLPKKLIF
Chain of CDK7/cyclin H (P51946 whole entry partner): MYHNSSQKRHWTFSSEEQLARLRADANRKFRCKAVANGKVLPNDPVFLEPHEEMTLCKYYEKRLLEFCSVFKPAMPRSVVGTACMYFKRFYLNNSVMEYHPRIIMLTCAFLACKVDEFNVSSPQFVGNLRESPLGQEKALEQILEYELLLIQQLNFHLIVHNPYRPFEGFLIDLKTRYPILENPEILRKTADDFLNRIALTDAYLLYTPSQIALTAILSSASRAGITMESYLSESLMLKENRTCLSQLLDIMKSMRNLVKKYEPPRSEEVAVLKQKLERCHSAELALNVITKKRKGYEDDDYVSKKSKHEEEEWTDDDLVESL
Summary of the method: as §1

[8] = target: GSK3b (Homo sapiens, UniProt P49841); assay: Kinase assay (radioactive phosphate incorporation), GSK-3b; type: biochemical; details: read-out: Kinase Inhibition pIC50 GSK-3b (converted)
Chain of GSK3b (P49841 whole entry, species assumed): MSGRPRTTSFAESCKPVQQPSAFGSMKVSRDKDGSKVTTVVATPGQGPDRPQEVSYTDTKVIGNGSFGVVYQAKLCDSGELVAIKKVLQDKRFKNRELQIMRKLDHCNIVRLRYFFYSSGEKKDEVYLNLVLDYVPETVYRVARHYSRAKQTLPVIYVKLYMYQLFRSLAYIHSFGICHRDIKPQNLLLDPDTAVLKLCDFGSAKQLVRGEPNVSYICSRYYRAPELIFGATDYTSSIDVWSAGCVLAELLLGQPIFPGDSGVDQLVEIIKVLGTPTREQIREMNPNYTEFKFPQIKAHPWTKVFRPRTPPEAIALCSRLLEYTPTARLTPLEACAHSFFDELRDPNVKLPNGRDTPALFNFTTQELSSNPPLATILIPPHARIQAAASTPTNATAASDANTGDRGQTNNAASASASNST
Summary of the method: as §2

[9] = target: T2, Flt3 (FMS-like tyrosine kinase-3) (Homo sapiens, UniProt P36888); assay: Kinase assay (radioactive phosphate incorporation), Flt3; type: biochemical; details: pIC50 is -log(IC50, M), read-out: Kinase Inhibition pIC50 Flt3 (converted)
T2 sequence (P36888 27-993): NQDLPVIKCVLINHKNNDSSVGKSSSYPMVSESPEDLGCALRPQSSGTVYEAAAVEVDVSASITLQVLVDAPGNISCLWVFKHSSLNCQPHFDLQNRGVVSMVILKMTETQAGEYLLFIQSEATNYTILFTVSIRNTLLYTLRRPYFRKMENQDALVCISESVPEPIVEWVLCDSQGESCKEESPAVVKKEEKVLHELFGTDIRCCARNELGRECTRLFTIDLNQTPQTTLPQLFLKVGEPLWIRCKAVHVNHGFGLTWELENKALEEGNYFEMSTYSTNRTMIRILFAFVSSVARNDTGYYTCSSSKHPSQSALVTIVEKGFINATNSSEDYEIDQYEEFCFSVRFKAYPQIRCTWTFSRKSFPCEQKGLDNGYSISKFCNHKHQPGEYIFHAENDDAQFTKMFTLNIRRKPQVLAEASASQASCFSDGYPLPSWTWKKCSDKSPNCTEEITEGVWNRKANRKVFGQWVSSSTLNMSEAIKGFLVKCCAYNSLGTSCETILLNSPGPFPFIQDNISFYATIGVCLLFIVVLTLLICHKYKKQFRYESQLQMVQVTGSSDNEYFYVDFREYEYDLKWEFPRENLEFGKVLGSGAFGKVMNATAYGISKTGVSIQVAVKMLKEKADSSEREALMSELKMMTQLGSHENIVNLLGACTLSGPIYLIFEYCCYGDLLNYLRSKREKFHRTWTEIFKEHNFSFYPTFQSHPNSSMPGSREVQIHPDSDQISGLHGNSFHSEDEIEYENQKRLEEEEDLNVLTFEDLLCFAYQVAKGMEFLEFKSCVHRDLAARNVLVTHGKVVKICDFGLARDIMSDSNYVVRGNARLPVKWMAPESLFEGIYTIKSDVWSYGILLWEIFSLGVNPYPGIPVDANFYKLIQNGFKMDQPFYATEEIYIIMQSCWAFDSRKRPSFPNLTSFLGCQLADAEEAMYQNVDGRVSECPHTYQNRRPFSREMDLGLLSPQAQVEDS
Summary of the method: as §2

Chain of CDK9/cyclin T1 (P50750 whole entry): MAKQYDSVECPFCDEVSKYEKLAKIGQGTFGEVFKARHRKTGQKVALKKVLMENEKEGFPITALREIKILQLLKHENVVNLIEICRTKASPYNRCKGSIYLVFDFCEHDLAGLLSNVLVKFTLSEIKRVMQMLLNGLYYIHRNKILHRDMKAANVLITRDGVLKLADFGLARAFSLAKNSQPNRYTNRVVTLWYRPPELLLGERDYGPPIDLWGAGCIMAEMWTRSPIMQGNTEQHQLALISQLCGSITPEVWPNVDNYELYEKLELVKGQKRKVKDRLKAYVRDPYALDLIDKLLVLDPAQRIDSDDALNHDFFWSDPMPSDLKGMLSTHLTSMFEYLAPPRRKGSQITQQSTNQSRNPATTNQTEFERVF
Chain of CDK9/cyclin T1 (O60563 whole entry partner): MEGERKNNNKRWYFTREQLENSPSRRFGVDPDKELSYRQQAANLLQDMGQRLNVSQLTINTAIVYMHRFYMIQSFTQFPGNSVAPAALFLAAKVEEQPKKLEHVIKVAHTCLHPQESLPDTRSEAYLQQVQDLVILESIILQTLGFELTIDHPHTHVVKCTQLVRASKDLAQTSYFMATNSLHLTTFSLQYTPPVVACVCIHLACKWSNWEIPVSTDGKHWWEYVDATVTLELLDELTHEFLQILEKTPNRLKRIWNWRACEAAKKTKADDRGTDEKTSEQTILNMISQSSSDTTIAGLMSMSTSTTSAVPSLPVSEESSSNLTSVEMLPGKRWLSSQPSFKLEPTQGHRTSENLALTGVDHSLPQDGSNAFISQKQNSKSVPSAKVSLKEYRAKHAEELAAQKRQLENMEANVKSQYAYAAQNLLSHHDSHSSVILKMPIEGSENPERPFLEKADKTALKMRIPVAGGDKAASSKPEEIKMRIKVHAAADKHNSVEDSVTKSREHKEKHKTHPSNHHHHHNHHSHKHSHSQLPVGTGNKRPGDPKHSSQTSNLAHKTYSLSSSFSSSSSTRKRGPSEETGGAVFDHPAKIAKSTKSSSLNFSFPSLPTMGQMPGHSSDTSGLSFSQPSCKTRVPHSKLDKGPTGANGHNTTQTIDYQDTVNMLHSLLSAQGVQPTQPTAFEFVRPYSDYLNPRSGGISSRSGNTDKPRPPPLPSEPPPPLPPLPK

Row | IC50 [1] [nM] | IC50 [2] [nM] | IC50 [3] [nM] | IC50 [4] [nM] | IC50 [5] [nM] | IC50 [6] [nM] | IC50 [7] [nM] | IC50 [8] [nM] | IC50 [9] [nM] | melting point [°C] | Compound
1 | 251 | 1260 | 316 | 501 | 1000 | 251 | 1000 | 398 |  |  | Cc1nc(C)c(-c2ccnc(Nc3cccc(S(C)(=O)=O)c3)n2)s1 [Compound 4, [4-(2,4-Dimethyl-thiazol-5-yl)-pyrimidin-2-yl]-(3-methanesulfonyl-phenyl)-amine]
2 | 501 | 251 | 158 | 631 | 1000 | 158 | 5010 | 2000 |  |  | Cc1nc(C)c(-c2ccnc(Nc3cccc(CNC(=O)c4ccccc4)c3)n2)s1 [Compound 9, N-{3-[4-(2,4-Dimethyl-thiazol-5-yl)-pyrimidin-2-ylamino]-benzyl}-benzamide]
3 | 316 |  | 1580 |  | 6310 | 2000 | 6310 | 6310 | 158 |  | CCNc1nc(C)c(-c2ccnc(Nc3cccc(CNS(=O)(=O)C(F)(F)F)c3)n2)s1 [Compound 10, N-{3-[4-(2-Ethylamino-4-methyl-thiazol-5-yl)-pyrimidin-2-ylamino]-benzyl}-C,C,C-trifluoro-methanesulfonamide]
4 | 39.8 | 200 | 100 | 1000 | 794 | 63.1 | 100 |  | 79.4 |  | CCNc1nc(C)c(-c2ccnc(Nc3cccc(S(=O)(=O)NC)c3)n2)s1 [Compound 22, 3-[4-(2-Ethylamino-4-methyl-thiazol-5-yl)-pyrimidin-2-ylamino]-N-methyl-benzenesulfonamide]
5 | 3.16 | 251 | 15.8 |  | 794 |  | 100 | 631 | 79.4 |  | CCNc1nc(C)c(-c2ccnc(Nc3cccc(S(C)(=O)=O)c3)n2)s1 [Compound 28, [4-(2-Ethylamino-4-methyl-thiazol-5-yl)-pyrimidin-2-yl]-(3-methanesulfonyl-phenyl)-amine]
6 | 20 | 50.1 | 251 | 501 | 1260 | 63.1 | 1000 |  | 63.1 |  | CCNS(=O)(=O)c1cccc(Nc2nccc(-c3sc(NC)nc3C)n2)c1 [Compound 31, N-Ethyl-3-[4-(4-methyl-2-methylamino-thiazol-5-yl)-pyrimidin-2-ylamino]-benzenesulfonamide]
7 | 158 |  | 3.16 | 79.4 | 15.8 | 5.01 |  | 501 |  |  | CNc1nc(C)c(-c2ccnc(Nc3ccc(S(=O)(=O)NCCOC)cc3)n2)s1 [Compound 40, N-(2-Methoxy-ethyl)-4-[4-(4-methyl-2-methylamino-thiazol-5-yl)-pyrimidin-2-ylamino]-benzenesulfonamide]
8 |  | 501 | 7.94 | 50.1 | 15.8 | 50.1 | 3160 | 794 |  |  | COCCNS(=O)(=O)c1ccc(Nc2nccc(-c3sc(N)nc3C)n2)cc1 [Compound 41, 4-[4-(2-Amino-4-methyl-thiazol-5-yl)-pyrimidin-2-ylamino]-N-(2-methoxy-ethyl)-benzenesulfonamide]
9 | 398 | 3160 | 2510 | 5010 | 3160 | 15.8 | 3980 |  | 100 |  | CCNc1nc(C)c(-c2ccnc(Nc3cccc(CC(=O)OCCOC)c3)n2)s1 [Compound 45, {3-[4-(2-Ethylamino-4-methyl-thiazol-5-yl)-pyrimidin-2-ylamino]-phenyl}-acetic acid 2-methoxy-ethyl ester]
10 | 501 |  |  |  | 3980 | 126 | 5010 | 1260 |  | 197 to 198 | COCCNS(=O)(=O)c1cccc(Nc2nccc(-c3sc(C)nc3C)n2)c1 [Compound 56, 3-[4-(2,4-Dimethyl-thiazol-5-yl)-pyrimidin-2-ylamino]-N-(2-methoxy-ethyl)-benzenesulfonamide]
11 | 316 | 158 | 631 | 6310 | 3160 | 50.1 | 200 |  | 39.8 |  | CCNc1nc(C)c(-c2ccnc(Nc3ccc(N4CCN(Cc5ccccc5)CC4)cc3)n2)s1 [Compound 60, [4-(4-Benzyl-piperazin-1-yl)-phenyl]-[4-(2-ethylamino-4-methyl-thiazol-5-yl)-pyrimidin-2-yl]-amine]
12 | 158 | 251 | 398 | 6310 | 2000 | 20 | 398 |  | 63.1 |  | Cc1nc(N)sc1-c1ccnc(Nc2ccc(N3CCNCC3)cc2)n1 [Compound 61, [4-(2-Amino-4-methyl-thiazol-5-yl)-pyrimidin-2-yl]-(4-piperazin-1-yl-phenyl)-amine]
